Test results published in ChEMBL document CHEMBL1122295, “Modified steroid hormones. 7. 4-Fluoro-17 beta-estradiol: carbon-13 nuclear magnetic resonance, crystal and molecular structure, and biological activity” (1983).
“And” between values parts separate entries of the source, which are not always exact repeats. Identical values can stand only once.

How the values were obtained:
Type in all cases: functional
Rattus norvegicus [1] = species: Rattus norvegicus; test: Effect on the average tumor number was determined in DMBA treated rats on day 30 (9 rats with tumors out of 10 rats)
Rattus norvegicus [2] = species: Rattus norvegicus; test: Effect on the average tumor mass was determined in DMBA treated rats on day 8 (4 rats with tumors out of 10 rats)
Rattus norvegicus [3] = species: Rattus norvegicus; test: Effect on the tumor incidence was determined in DMBA treated rats on day 30 (9 rats with tumors out of 10 rats)
Rattus norvegicus [4] = species: Rattus norvegicus; test: Effect on the tumor incidence was determined in DMBA treated rats on day 8 (4 rats with tumors out of 10 rats)
Rattus norvegicus [5] = species: Rattus norvegicus; test: Effect on the tumor incidence was determined in DMBA treated rats on day 150 (9 rats with tumors out of 10 rats)
Rattus norvegicus [6] = species: Rattus norvegicus; test: Effect on the tumor incidence was determined in DMBA treated rats on day 6 (5 rats with tumors out of 10 rats)
Rattus norvegicus [7] = species: Rattus norvegicus; test: Effect on the average tumor mass was determined in DMBA treated rats on day 6 (5 rats with tumors out of 10 rats)
Rattus norvegicus [8] = species: Rattus norvegicus; test: Effect on the average tumor number was determined in DMBA treated rats on day 150 (9 rats with tumors out of 10 rats)
Rattus norvegicus [9] = species: Rattus norvegicus; test: Effect on the average tumor number was determined in DMBA treated rats on day 1 (5 rats with tumors out of 10 rats)
Rattus norvegicus [10] = species: Rattus norvegicus; test: Effect on the average tumor mass was determined in DMBA treated rats on day 150 (9 rats with tumors out of 10 rats)
Rattus norvegicus [11] = species: Rattus norvegicus; test: Effect on the tumor incidence was determined in DMBA treated rats on day 1 (5 rats with tumors out of 10 rats)
Rattus norvegicus [12] = species: Rattus norvegicus; test: Effect on the average tumor number was determined in DMBA treated rats on day 6 (5 rats with tumors out of 10 rats)
Rattus norvegicus [13] = species: Rattus norvegicus; test: Effect on the average tumor mass was determined in DMBA treated rats on day 1 (5 rats with tumors out of 10 rats)
Rattus norvegicus [14] = species: Rattus norvegicus; test: Effect on the average tumor mass was determined in DMBA treated rats on day 30 (9 rats with tumors out of 10 rats)
Rattus norvegicus [15] = species: Rattus norvegicus; test: Effect on the average tumor number was determined in DMBA treated rats on day 8 (4 rats with tumors out of 10 rats)
Rattus norvegicus [16] = species: Rattus norvegicus; test: Effect on the average tumor mass was determined in DMBA treated rats on day 150 (2 rats with tumors out of 10 rats)
Rattus norvegicus [17] = species: Rattus norvegicus; test: Effect on the average tumor number was determined in DMBA treated rats on day 150 (3 rats with tumors out of 10 rats)
Rattus norvegicus [18] = species: Rattus norvegicus; test: Effect on the average tumor mass was determined in DMBA treated rats on day 30 (3 rats with tumors out of 10 rats)
Rattus norvegicus [19] = species: Rattus norvegicus; test: Effect on the tumor incidence was determined in DMBA treated rats on day 30 (3 rats with tumors out of 10 rats)
Rattus norvegicus [20] = species: Rattus norvegicus; test: Effect on the average tumor mass was determined in DMBA treated rats on day 150 (3 rats with tumors out of 10 rats)
Rattus norvegicus [21] = species: Rattus norvegicus; test: Effect on the average tumor number was determined in DMBA treated rats on day 30 (1 rats with tumors out of 10 rats)
Rattus norvegicus [22] = species: Rattus norvegicus; test: Effect on the tumor incidence was determined in DMBA treated rats on day 30 (1 rats with tumors out of 10 rats)
Rattus norvegicus [23] = species: Rattus norvegicus; test: Effect on the average tumor number was determined in DMBA treated rats on day 150 (2 rats with tumors out of 10 rats)
Rattus norvegicus [24] = species: Rattus norvegicus; test: Effect on the average tumor number was determined in DMBA treated rats on day 30 (3 rats with tumors out of 10 rats)
Rattus norvegicus [25] = species: Rattus norvegicus; test: Effect on the tumor incidence was determined in DMBA treated rats on day 150 (2 rats with tumors out of 10 rats)
Rattus norvegicus [26] = species: Rattus norvegicus; test: Effect on the average tumor mass was determined in DMBA treated rats on day 30 (1 rats with tumors out of 10 rats)
Rattus norvegicus [27] = species: Rattus norvegicus; test: Effect on the tumor incidence was determined in DMBA treated rats on day 150 (3 rats with tumors out of 10 rats)
Rattus norvegicus [28] = species: Rattus norvegicus; test: Effect on the tumor incidence was determined in DMBA treated rats on day 8 (3 rats with tumors out of 10 rats)
Rattus norvegicus [29] = species: Rattus norvegicus; test: Effect on the tumor incidence was determined in DMBA treated rats on day 150 (10 rats with tumors out of 10 rats)
Rattus norvegicus [30] = species: Rattus norvegicus; test: Effect on the average tumor number was determined in DMBA treated rats on day 30 (10 rats with tumors out of 10 rats)
Rattus norvegicus [31] = species: Rattus norvegicus; test: Effect on the average tumor number was determined in DMBA treated rats on day 150 (10 rats with tumors out of 10 rats)
Rattus norvegicus [32] = species: Rattus norvegicus; test: Effect on the average tumor number was determined in DMBA treated rats on day 6 (4 rats with tumors out of 10 rats)
Rattus norvegicus [33] = species: Rattus norvegicus; test: Effect on the average tumor number was determined in DMBA treated rats on day 8 (3 rats with tumors out of 10 rats)
Rattus norvegicus [34] = species: Rattus norvegicus; test: Effect on the average tumor mass was determined in DMBA treated rats on day 150 (10 rats with tumors out of 10 rats)
Rattus norvegicus [35] = species: Rattus norvegicus; test: Effect on the tumor incidence was determined in DMBA treated rats on day 6 (4 rats with tumors out of 10 rats)
Rattus norvegicus [36] = species: Rattus norvegicus; test: Effect on the average tumor mass was determined in DMBA treated rats on day 8 (3 rats with tumors out of 10 rats)
Rattus norvegicus [37] = species: Rattus norvegicus; test: Effect on the average tumor mass was determined in DMBA treated rats on day 6 (4 rats with tumors out of 10 rats)
Rattus norvegicus [38] = species: Rattus norvegicus; test: Effect on the tumor incidence was determined in DMBA treated rats on day 30 (10 rats with tumors out of 10 rats)
Rattus norvegicus [39] = species: Rattus norvegicus; test: Effect on the average tumor mass was determined in DMBA treated rats on day 30 (10 rats with tumors out of 10 rats)

| Structure (SMILES) | Tumor mass (Rattus norvegicus [2]) | Total tumors (Rattus norvegicus [4]) | Total tumors (Rattus norvegicus [6]) | Tumor mass (Rattus norvegicus [7]) | Tumor number (Rattus norvegicus [9]) | Total tumors (Rattus norvegicus [11]) | Tumor number (Rattus norvegicus [12]) | Tumor mass (Rattus norvegicus [13]) | Tumor number (Rattus norvegicus [15]) | Tumor number (Rattus norvegicus [17]) | Tumor mass (Rattus norvegicus [20]) | Tumor number (Rattus norvegicus [21]) | Total tumors (Rattus norvegicus [22]) | Tumor mass (Rattus norvegicus [26]) | Total tumors (Rattus norvegicus [27]) | Total tumors (Rattus norvegicus [28]) | Tumor number (Rattus norvegicus [33]) | Tumor mass (Rattus norvegicus [36]) | other results |
| --- | --- | --- | --- | --- | --- | --- | --- | --- | --- | --- | --- | --- | --- | --- | --- | --- | --- | --- | --- |
| CC(C)[C@@H]1C(=O)N2CCC[C@H]2[C@]2(O)O[C@](NC(=O)[C@@H]3C=C4c5cccc6[nH]cc(c56)C[C@H]4N(C)C3)(C(C)C)C(=O)N12.O=C(O)/C=C\C(=O)O | 0.4 g | 5 | 6 | 0.4 g | 1.6 | 8 | 1.2 | 0.8 g | 1.3 | – | – | – | – | – | – | – | – | – | Tumor number (Rattus norvegicus [1]): 1.3; Total tumors (Rattus norvegicus [3]): 12; Total tumors (Rattus norvegicus [5]): 16; Tumor number (Rattus norvegicus [8]): 1.9; Tumor mass (Rattus norvegicus [10]): 1.7 g; Tumor mass (Rattus norvegicus [14]): 0.4 g |
| CC(=O)[C@H]1CC[C@H]2[C@@H]3CCC4=CC(=O)CC[C@]4(C)[C@H]3CC[C@]12C.CC(C)[C@@H]1C(=O)N2CCC[C@H]2[C@]2(O)O[C@](NC(=O)[C@@H]3C=C4c5cccc6[nH]cc(c56)C[C@H]4N(C)C3)(C(C)C)C(=O)N12.C[C@]12CC[C@@H]3c4ccc(O)c(F)c4CC[C@H]3[C@@H]1CC[C@@H]2O.O=C(O)/C=C\C(=O)O | 0.5 g and 0.6 g | 5 and 6 | 7 | 0.8 g and 0.6 g | 1 and 1.2 | 5 and 6 | 1.4 | 0.5 g and 0.4 g | 1.3 and 1.4 | 1 | 1.2 g | 1 | 1 | 0.5 g | 3 | – | – | – | Tumor mass (Rattus norvegicus [16]): 5 g; Tumor mass (Rattus norvegicus [18]): 0.3 g; Total tumors (Rattus norvegicus [19]): 3; Tumor number (Rattus norvegicus [23]): 2.5; Tumor number (Rattus norvegicus [24]): 1; Total tumors (Rattus norvegicus [25]): 5 |
| CC(=O)[C@H]1CC[C@H]2[C@@H]3CCC4=CC(=O)CC[C@]4(C)[C@H]3CC[C@]12C.CC(C)[C@@H]1C(=O)N2CCC[C@H]2[C@]2(O)O[C@](NC(=O)[C@@H]3C=C4c5cccc6[nH]cc(c56)C[C@H]4N(C)C3)(C(C)C)C(=O)N12.O=C(O)/C=C\C(=O)O | – | – | – | – | 1.2 | 6 | – | 0.4 g | – | – | – | – | – | – | – | 4 | 1.3 | 0.9 g | Total tumors (Rattus norvegicus [29]): 17; Tumor number (Rattus norvegicus [30]): 1.5; Tumor number (Rattus norvegicus [31]): 1.7; Tumor number (Rattus norvegicus [32]): 1; Tumor mass (Rattus norvegicus [34]): 4 g; Total tumors (Rattus norvegicus [35]): 4; Tumor mass (Rattus norvegicus [37]): 0.7 g; Total tumors (Rattus norvegicus [38]): 15; Tumor mass (Rattus norvegicus [39]): 1.5 g |
| CC(C)[C@@H]1C(=O)N2CCC[C@H]2[C@]2(O)O[C@](NC(=O)[C@@H]3C=C4c5cccc6[nH]cc(c56)C[C@H]4N(C)C3)(C(C)C)C(=O)N12.C[C@]12CC[C@@H]3c4ccc(O)c(F)c4CC[C@H]3[C@@H]1CC[C@@H]2O.O=C(O)/C=C\C(=O)O | – | – | 5 | 0.2 g | 1.2 | 6 | 1 | 0.4 g | – | 1 | 2.7 g | 1 | 1 | 0.3 g | 3 | 3 | 1 | 0.2 g | – |
